{"source": "patent US20240307396A1", "about": "“COMPOSITIONS AND METHODS FOR TREATING CELIAC DISEASE” (THE REGENTS OF THE UNIVERSITY OF CALIFORNIA, priority 2021, published 2024)", "key": {"[1]": {"tested_on": "Type II refractory celiac disease", "test": "Trend of pertinent laboratory values in a Type II RCD patient across sequential treatments", "type": "in vivo, human", "parameters": "CRP: unit not given beside the values", "conditions": "for CRP / DGP IgA / TTG IgA: same patient, Budesonide 3 m, Infliximab 1 y, Cladribine 1.5 y, Tofacitinib 2 y", "text": "A person with a past medical history significant for Hashimoto's thyroiditis and positive celiac serology was initially seen for protein-losing enteropathy. Although they had previously been on a gluten-free diet (GFD) for 1 year after first being diagnosed with CD, they re-introduced gluten 3 years before pregnancy without symptoms. They stayed on gluten until one-month postpartum when they developed epigastric pain, nausea, diarrhea with 2-3 loose to watery stools daily, along with significant bilateral lower extremity edema.\nAt the time of initial hospital admission, they were five months postpartum with the above symptomatology. […] They were discharged to outpatient setting on a GFD and referred to a CD clinic for management.\n(§1) During the initial outpatient visit in the CD clinic they were hypotensive with anasarca, diagnosed with celiac crisis, and urgently sent for readmission. They were treated with 72 hours of intravenous solumedrol 20 mg every 12 hours and then transitioned to open-capsule protocol budesonide 3 mg three times a day.\n(§2) They were therefore switched to experimental infliximab after a total of 5 months on budesonide.\n(§3) The patient was now about 18 months out from diagnosis of Type II RCD, which is associated with about 50% risk of lymphoma in 5 years, so it was imperative to find an effective regimen. […] Discussion of associated adverse events, including thromboembolic ones, was conducted, and pre-treatment labs including lipid profile were done. […] This was the first-time the patient achieved such results in the 2 years since presenting with celiac crisis. […] Their tofacitinib dose will be reduced to 5 mg twice daily to reduce associated adverse events."}, "[2]": {"tested_on": "Type II refractory celiac disease", "test": "Endoscopic and clinical response of the Type II RCD patient", "type": "in vivo, human", "conditions": "for Endoscopic finding (ulcerative jejunitis / duodenopathy): budesonide 3 months, infliximab 9 months, tofacitinib 10 mg twice daily, four months", "procedure": "as §1, §2, §3\nHowever, malabsorption, malignancy, morbidity and mortality are known complications in Type II RCD (Cellier et al. (2000); Ilus et al. (2014); Weiss (2021) Diagnosis and Management of Gluten-Associated Disorders: A clinical casebook. Springer). Currently, the best clinical practice in managing RCD is to advocate for experimental medication treatment in adjunct to a strict gluten-free diet (GFD). Yet the same guidelines acknowledge the absence of treatments with proven efficacy in Type II RCD (Rubio-Tapia et al. (2013) Am. J. Gastroenterol., 108(5):656-677; Al-Toma et al. (2019) United European Gastroenterol. J.: 7(5):583-613). The European guidelines discuss the potential use of AMG714 or JAK inhibitor after corticosteroids, immunomodulators, and chemotherapy in the most refractory of CD cases. […] Additional studies are needed, but the therapy disclosed herein may be utilized in uncomplicated CD or non-responsive CD (NRCD) in combination with a GFD, or even as a substitute to one."}, "[3]": {"tested_on": "Type II refractory celiac disease", "test": "Small bowel biopsy histology (modified Marsh classification) and immunophenotype in the Type II RCD patient", "type": "in vivo, human", "conditions": "for Pathology (Marsh lesion): same patient, Budesonide 3 m, Infliximab 1 y, Cladribine 1.5 y, Tofacitinib 2 y; for Marsh lesions on biopsy: tofacitinib 10 mg twice daily, four months", "text": "CD can be characterized using the modified Marsh classification scheme. A subject having a Marsh 0 score would be characterized as either healthy or if previously diagnosed with CD, as “CD in remission”. A Marsh 1 score is non-specific, rarely seen in CD, unless already on a GFD during endoscopy, and may be observed in subjects having dermatitis herpetiformis (DH) or in family members of CD patients, but also with other conditions as infections and adverse response to medications. A Marsh 2 score is rare and is sometimes observed in DH and again in CD patients already on a GFD. Marsh 3 score is characteristic of the spectrum of changes observed in symptomatic CD patients.\nas §1, §2, §3"}, "[4]": {"target": "IL-15 (Homo sapiens, UniProt P40933)", "sequence (P40933 49-162)": "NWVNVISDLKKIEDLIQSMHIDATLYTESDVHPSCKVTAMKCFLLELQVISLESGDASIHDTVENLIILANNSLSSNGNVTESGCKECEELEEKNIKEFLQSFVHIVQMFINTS", "conditions": "cited from earlier work"}, "[5]": {"conditions": "budesonide 3 months, infliximab 9 months"}}, "note": "“Also recorded” adds a separate entry of the source.", "data": [{"compound": "CCCC1O[C@@H]2C[C@H]3[C@@H]4CCC5=CC(=O)C=C[C@]5(C)[C@H]4[C@@H](O)C[C@]3(C)[C@]2(C(=O)CO)O1", "note": "(stereo partly shown) [Budesonide, budesonide]", "values": [{"measurement": "CRP", "setting": "[1]", "value": "<0.3"}, {"measurement": "DGP IgA", "setting": "[1]", "value": 186.9}, {"measurement": "TTG IgA", "setting": "[1]", "value": 152.3}]}, {"compound": "Nc1nc(Cl)nc2c1ncn2[C@H]1C[C@H](O)[C@@H](CO)O1", "note": "[Cladribine, cladribine]", "values": [{"measurement": "Resolution of RCD", "setting": "[2]; one dose of cladribine 10 mg IV", "value": "without resolution of their RCD"}, {"measurement": "Pathology (Marsh lesion)", "setting": "[3]", "value": "Marsh 3A"}, {"measurement": "CRP", "setting": "[1]", "value": "<0.3"}, {"measurement": "DGP IgA", "setting": "[1]", "value": "57.7 (H)"}, {"measurement": "TTG IgA", "setting": "[1]", "value": "44.3 (H)"}]}, {"compound": "C[C@@H]1CCN(C(=O)CC#N)C[C@@H]1N(C)c1ncnc2[nH]ccc12", "note": "[Tofacitinib, tofacitinib]", "values": [{"measurement": "Endoscopic finding (ulcerative jejunitis / duodenopathy)", "setting": "[2]", "value": "reversed severe therapy-refractory duodenopathy; also recorded: improvement in their duodenopathy"}, {"measurement": "Symptoms", "setting": "[2]; during tofacitinib therapy", "value": "ameliorated symptoms of CD; also recorded: feeling well with minimum symptoms"}, {"measurement": "Marsh lesions on biopsy", "setting": "[3]; [5]", "value": "Marsh 1-2"}, {"measurement": "Duodenal bulb biopsy histology (H&E)", "setting": "[3]; during tofacitinib therapy, FIG. 2D", "value": "normal villous architecture with focal areas of crypt hyperplasia and an increase in intraepithelial lymphocytes"}, {"measurement": "Pathology (Marsh lesion)", "setting": "[3]", "value": "Marsh 1-2"}, {"measurement": "CD serologies", "setting": "[1]; four months after start of tofacitinib 10 mg twice daily", "value": "normalization of their CD serologies"}, {"measurement": "CRP", "setting": "[1]", "value": "<0.3"}, {"measurement": "DGP IgA", "setting": "[1]", "value": "70 (H)"}, {"measurement": "TTG IgA", "setting": "[1]", "value": 5}]}, {"compound": "AMG714: anti-IL-15 mAb", "values": [{"measurement": "Results of AMG714", "setting": "[4]", "value": "positive yet statistically insignificant results"}]}, {"compound": "infliximab", "values": [{"measurement": "Endoscopic finding (ulcerative jejunitis / duodenopathy)", "setting": "[2]", "value": "resolution of their ulcerative jejunitis"}, {"measurement": "T-cell aberrancy / CD8 expression in intraepithelial T-lymphocytes", "setting": "[3]; [5]", "value": "unchanged T-cell aberrancy"}, {"measurement": "Marsh lesions on biopsy", "setting": "[3]; [5]", "value": "Marsh 3A"}, {"measurement": "Pathology (Marsh lesion)", "setting": "[3]", "value": "Marsh 3A"}, {"measurement": "CRP", "setting": "[1]", "value": "<0.3"}, {"measurement": "DGP IgA", "setting": "[1]", "value": "53.9 (H)"}, {"measurement": "TTG IgA", "setting": "[1]", "value": "33.1 (H)"}]}]}
